{
  "source": "patent US20190022225A1",
  "about": "“PROTOCOL FOR INCREASING LIFE EXPECTANCY IN A TEST SUBJECT” (Mayo Foundation for Medical Education and Research, priority 2015, published 2019)",
  "assay_type_in_all_cases": "in vivo, mouse",
  "key": {"aging mice": {"test_system": "aging mice", "experiment": "Late life muscle strength and condition (grip strength, treadmill, muscle weight, fiber area)", "description": "Grip strength was measured in untreated 12 month old mice, and in mice treated with either vehicle or AP20187 at 18 and 28 months of age.\nMuscle strength was also assessed by determining exercise duration and distance on a treadmill.\nAs an additional measure of muscle condition gastrocnemius and tibialis anterior muscles, shown in FIG. 99, where dissected from senolysis treated and untreated 28 month old mice and weighed. As shown in FIGS. 100 and 101 the gastrocnemius and tibialis anterior muscles are heavier in treated mice than in untreated mice, muscle weights from untreated 18 month old mice are included to show the age related decline. Muscle fiber area of the gastrocnemius and tibialis anterior muscles was also used to assess muscle condition."}, "INKattac mice [1]": {"test_system": "INKattac mice", "experiment": "Micro CT estimate of intervertebral disc space (IVS) in aged mice", "description": "(§1) This example describes a method for assessing the effect of senotlytic agents or killing of senescent cells on bone structure. Two groups of INKattac mice are used for this method: mice treated from 12-28 months of age with vehicle (“old” controls) and mice treated from 12-28 months of age with AP20187. All mice used in this example were male. After sacrifice the cadavers were fixed in 10% neutral buffered formalin, and stored at 4° C.\nIntervertebral discs are type of cartilage filling the space between vertebras of the spine. They are known to decrease in function and volume with age. We estimated the intervertebral volumes between specific vertebra in spines of aged mice, with and without senolytic treatment, to determine if intervertebral disc space was maintained in aged animals through senolysis.\nWhile IVDs cannot be directly visualized with the micro-CT method of example 43, an image segmentation protocol was developed to infer disc volume by determining the volume between lumbar vertebra L6 and L5, L5 and L4, and L4 and L3 to estimate the intervertebral disc space (IVS) (FIG. 94)."}, "[2]": {"test_system": "3MR or INK-ATTAC mice exposed to cigarette smoke", "experiment": "Cigarette smoke exposure model (COPD), oxygen saturation", "details": "after 2 months of cigarette smoke exposure", "description": "Six week-old 3MR (n=35) or INK-ATTAC (n=35) mice were chronically exposed to cigarette smoke generated from a Teague TE-10 system, an automatically-controlled cigarette smoking machine that produces a combination of side-stream and mainstream cigarette smoke in a chamber, which is transported to a collecting and mixing chamber where varying amounts of air is mixed with the smoke mixture. […] Mice received a total of 6 hours of cigarette smoke exposure per day, 5 days a week for 6 months. Each lighted cigarette (3R4F research cigarettes containing 10.9 mg of total particulate matter (TPM), 9.4 mg of tar, and 0.726 mg of nicotine, and 11.9 mg carbon monoxide per cigarette [University of Kentucky, Lexington, Ky.]) was puffed for 2 seconds and once every minute for a total of 8 puffs, with the flow rate of 1.05 L/min, to provide a standard puff of 35 cm^3. The smoke machine was adjusted to produce a mixture of side stream smoke (89%) and mainstream smoke (11%) by smoldering 2 cigarettes at one time. The smoke chamber atmosphere was monitored for total suspended particulates (80-120 mg/m^3) and carbon monoxide (350 ppm). Beginning at day 7, (10) INK-ATTAC and (10) 3MR mice were treated with AP20187 (3×per week) or gancyclovir (5 consecutive days of treatment followed by 16 days off drug, repeated until the end of the experiment), respectively. An equal number of mice received the corresponding vehicle. The remaining 30 mice (15 INK-ATTAC and 15 3MR) were evenly split with 5 of each genetically modified strain placed into three different treatment groups. One group (n=10) received Nutlin-3A (25 mg/kg dissolved in 10% DMSO/3% Tween-20 in PBS, treated 14 days consecutively followed by 14 days off drug, repeated until the end of the experiment). One group (n=10) received ABT-263 (Navitoclax) (100 mg/kg dissolved in 15% DMSO/5% Tween-20, treated 7 days consecutively followed by 14 days off drug, repeated until the end of the experiment), and the last group (n=10) received only the vehicle used for ABT-263 (15% DMSO/5% Tween-20), following the same treatment regimen as ABT-263.\nAfter two months of cigarette smoke exposure, lung function was assessed by monitoring oxygen saturation using the MouseSTAT PhysioSuite pulse oximeter (Kent Scientific). Animals were anesthetized with isoflurane (1.5%) and the toe clip was applied. Mice were monitored for 30 seconds and the average peripheral capillary oxygen saturation (SpO2) measurement over this duration was calculated."}, "INKattac mice [3]": {"test_system": "INKattac mice", "experiment": "Micro CT of femoral cortical bone in INKattac mice treated from 12-28 months", "description": "as §1\nMice were cleaned of excess tissue, and placed in a Bruker 1176 “Skyscanner” for micro computerized tomographic (mCT) scanning. A variety of settings were explored to visualize whole skeletons, the following settings were used in this example: 65 Kv, 385 μA, 17.58 μm, 0.5 mm Al filter, rotation step 0.5, frame averaging 6, smoothing 2, smoothing kernel 2, ring artifact correction 4, and beam hardening correction 30%. Typical acquisition consisted of a whole body scan, followed by additional scans if necessary for further data exploration.\nReconstruction of the raw data was carried out. Subvoluming of anatomical features of interest was then further performed on the whole skeleton, using DataViewer, or CtAn software (Bruker). […]\nThe average thickness of each 2 mm subvolume was measured in treated versus non-treated animals. […]"}, "[4]": {"test_system": "INK-ATTAC transgenic mice", "experiment": "Cardiac stress test (lethal isoproterenol) in INK-ATTAC mice treated with AP20187", "description": "To study the impact of senescent cell clearance on health and lifespan, cohorts of INK-ATTAC transgenic mice on FVB×129Sv/E×C57BL/6 mixed or C57BL/6 pure genetic backgrounds were established. At 12 months age, one half of each cohort was injected three times/week with AP20187 to induce apoptosis of p16-positive senescent cells (0.2 mg/kg and 2 mg/kg AP20187 for the mixed and the pure C57BL/6 cohorts, respectively), while the other half of each cohort received vehicle. At 18 months, subsets of male and female mice from each cohort were subjected to a cardiac stress test, in which mice were injected with a lethal dose of isoproterenol (680 mg/kg) and the time to cardiac arrest was recorded.\nCardio-protective signaling pathways are known to provide tolerance to metabolic stresses such as ischemia and hypoxia decline (Granfeldt et al., 2009, Cardiovasc. Res. 83:234-246). […] ATP-dependent K channels (KATP) play a central role in cardio-protective signaling (Gross and Auchampach, 1992, Cardiovasc. Res. 26:1011-1016).). These KATP channels are composed of the pore-forming subunit Kir6.2/Kir6.1, the regulatory subunit Sur2a, and additional accessory proteins. […]"}},
  "note": "Entries after “also recorded” stand apart in the source; their conditions may differ.",
  "data": [
    {"smiles": "CC[C@H](C(=O)N1CCCC[C@H]1C(=O)O[C@H](CCc1ccc(OC)c(OC)c1)c1cccc(OCC(=O)NCC(CNC(=O)COc2cccc([C@@H](CCc3ccc(OC)c(OC)c3)OC(=O)[C@@H]3CCCCN3C(=O)[C@@H](CC)c3cc(OC)c(OC)c(OC)c3)c2)CN(C)C)c1)c1cc(OC)c(OC)c(OC)c1", "note": "[AP20187]", "values": [
      {"measurement": "gastrocnemius and tibialis anterior muscle weight", "setting": "aging mice; 28 month old mice", "value": "decreased muscle loss with age"},
      {"measurement": "exercise distance on treadmill", "setting": "aging mice; 28 months, versus vehicle", "value": "increased exercise distance; also recorded: greater distances"},
      {"measurement": "exercise duration on treadmill", "setting": "aging mice; 28 months, versus vehicle", "value": "increased duration of exercise; also recorded: exercised for longer"},
      {"measurement": "grip strength", "setting": "aging mice; 28 months, versus vehicle", "value": "increased grip strength; also recorded: decreased loss of muscle strength"},
      {"measurement": "improvement of intervertebral disc space (IVS)", "setting": "INKattac mice [1]; L6-L5, L5-L4, L4-L3, versus vehicle", "value": "25-33%"},
      {"measurement": "IVS versus vehicle treated controls, significance", "setting": "INKattac mice [1]; three sites in the spine", "value": "statistically significantly greater"},
      {"measurement": "SpO2 levels versus untreated controls", "setting": "[2]", "value": "statistically significant increases"},
      {"measurement": "cortical thickness of femoral bone", "setting": "INKattac mice [3]; aged mice, versus controls", "value": "increased"},
      {"measurement": "retention of cortical bone volume (BV/TV) with age", "setting": "INKattac mice [3]; male mice treated from 12-28 months, 2 mm subvolume of femur mid-diaphysis", "value": 6.1, "unit": "%"},
      {"measurement": "time to cardiac arrest after lethal isoproterenol (cardio-protection)", "setting": "[4]; 0.2 or 2 mg/kg three times/week from 12 to 18 months", "value": "sustained youthful cardio-protection against isoproterenol"},
      {"measurement": "Sur2a expression in heart", "setting": "[4]; 18-month-old female mice", "value": "sustained Sur2a expression"}
    ]}
  ]
}
